Assay: recombinant UMI read abundance after kanamycin selection (control-corrected) (log10(CPM+1)); higher = more efficient recombination; extreme values may be limits of the assay; sequences stand for … in AGTGCAGAGAAAATCGGCCAGTTTTCTCTGCCTGCAGTCCGCATGCCGTGGGACCCCTTGGGTTCTAACCTGTTGCCTAGATTTATGCAGCGGACTGCCTTTCTCCCAAAGTGATAAACCGG…AGGTTGGTTTCACT; site = the 11-nt donor
Method in brief: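 The measure is log10(CPM+1) for recombinant UMIs. These were PCR-amplified across the donor–target junction and sequenced after Escherichia coli carrying a donor and donor-binding-loop pair library and a target plasmid with T7-inducible IS621 bridge recombinase was plated on IPTG (0.07 mM) plus kanamycin or unselected. CPM were averaged over two replicates and scaled by control-derived factors.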
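Also: IS621 bridge recombinase in Escherichia coli cells against a fixed T5 target plasmid.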

With “AGGACTACATGGACCGGTTTTCCCGGTAATCCGTATTTGAC (site AAGACTACTGT)” the “recombinant UMI read abundance (log10)” value was 0.848.
For “AGGACTACATGGACCGGTTTTCCCGGTAATCCGTATTTGAC (site ACGACTACTGT)”, the “recombinant UMI read abundance (log10)” value was 0.945.
With “AGGACTACATGGACCGGTTTTCCCGGTAATCCGTATTTGAC (site AGAACTACTGT)” the “recombinant UMI read abundance (log10)” value was 2.18.
For “AGGACTACATGGACCGGTTTTCCCGGTAATCCGTATTTGAC (site AGCACTACTGT)”, the “recombinant UMI read abundance (log10)” value was 0.0103.
For “AGGACTACATGGACCGGTTTTCCCGGTAATCCGTATTTGAC (site AGGAATACTGT)”, the “recombinant UMI read abundance (log10)” value was 1.29.
For “AGGACTACATGGACCGGTTTTCCCGGTAATCCGTATTTGAC (site AGGACAACTGT)”, the “recombinant UMI read abundance (log10)” value was 0.797.
For “AGGACTACATGGACCGGTTTTCCCGGTAATCCGTATTTGAC (site AGGACCACTGT)”, the “recombinant UMI read abundance (log10)” value was 0.969.
In the case of “AGGACTACATGGACCGGTTTTCCCGGTAATCCGTATTTGAC (site AGGACGACTGT)”, the “recombinant UMI read abundance (log10)” value is reported as 0.00571.
With “AGGACTACATGGACCGGTTTTCCCGGTAATCCGTATTTGAC (site AGGACTACTAT)” the “recombinant UMI read abundance (log10)” value was 0.00291.
In the case of “AGGACTACATGGACCGGTTTTCCCGGTAATCCGTATTTGAC (site AGGACTACTCT)”, the “recombinant UMI read abundance (log10)” value is reported as 0.0111.
In the case of “AGGACTACATGGACCGGTTTTCCCGGTAATCCGTATTTGAC (site AGGACTACTGA)”, the “recombinant UMI read abundance (log10)” value is reported as 0.
For “AGGACTACATGGACCGGTTTTCCCGGTAATCCGTATTTGAC (site AGGACTACTGC)”, the “recombinant UMI read abundance (log10)” value was 0.68.
In the case of “AGGACTACATGGACCGGTTTTCCCGGTAATCCGTATTTGAC (site AGGACTACTGG)”, the “recombinant UMI read abundance (log10)” value is reported as 0.
With “AGGACTACATGGACCGGTTTTCCCGGTAATCCGTATTTGAC (site AGGACTACTGT)” the “recombinant UMI read abundance (log10)” value was 2.29.
In the case of “AGGACTACATGGACCGGTTTTCCCGGTAATCCGTATTTGAC (site AGGACTACTTT)”, the “recombinant UMI read abundance (log10)” value is reported as 0.0694.
In the case of “AGGACTACATGGACCGGTTTTCCCGGTAATCCGTATTTGAC (site AGGACTCCTGT)”, the “recombinant UMI read abundance (log10)” value is reported as 0.
With “AGGACTACATGGACCGGTTTTCCCGGTAATCCGTATTTGAC (site AGGACTGCTGT)” the “recombinant UMI read abundance (log10)” value was 0.359.
With “AGGACTACATGGACCGGTTTTCCCGGTAATCCGTATTTGAC (site AGGACTTCTGT)” the “recombinant UMI read abundance (log10)” value was 0.0138.
For “AGGACTACATGGACCGGTTTTCCCGGTAATCCGTATTTGAC (site AGGAGTACTGT)”, the “recombinant UMI read abundance (log10)” value was 0.
In the case of “AGGACTACATGGACCGGTTTTCCCGGTAATCCGTATTTGAC (site AGGATTACTGT)”, the “recombinant UMI read abundance (log10)” value is reported as 0.471.
For “AGGACTACATGGACCGGTTTTCCCGGTAATCCGTATTTGAC (site AGGCCTACTGT)”, the “recombinant UMI read abundance (log10)” value was 0.988.
In the case of “AGGACTACATGGACCGGTTTTCCCGGTAATCCGTATTTGAC (site AGGGCTACTGT)”, the “recombinant UMI read abundance (log10)” value is reported as 0.
In the case of “AGGACTACATGGACCGGTTTTCCCGGTAATCCGTATTTGAC (site AGGTCTACTGT)”, the “recombinant UMI read abundance (log10)” value is reported as 1.2.
With “AGGACTACATGGACCGGTTTTCCCGGTAATCCGTATTTGAC (site AGTACTACTGT)” the “recombinant UMI read abundance (log10)” value was 0.941.
For “AGGACTACATGGACCGGTTTTCCCGGTAATCCGTATTTGAC (site ATGACTACTGT)”, the “recombinant UMI read abundance (log10)” value was 1.13.
In the case of “AGGACTACATGGACCGGTTTTCCCGGTAATCCGTATTTGAC (site CGGACTACTGT)”, the “recombinant UMI read abundance (log10)” value is reported as 0.831.
With “AGGACTACATGGACCGGTTTTCCCGGTAATCCGTATTTGAC (site GGGACTACTGT)” the “recombinant UMI read abundance (log10)” value was 0.
In the case of “AGGACTACATGGACCGGTTTTCCCGGTAATCCGTATTTGAC (site TGGACTACTGT)”, the “recombinant UMI read abundance (log10)” value is reported as 0.901.
For “AGGACTACATGGACCGGTTTTCCCGGTAATCCGTATTTGCA (site AGGAAGACTTG)”, the “recombinant UMI read abundance (log10)” value was 0.
For “AGGACTACATGGACCGGTTTTCCCGGTAATCCGTATTTGCA (site AGGACTACTTG)”, the “recombinant UMI read abundance (log10)” value was 2.22.
For “AGGACTCCATGGACCGGTTTTCCCGGTAATCCGTATTTGAC (site AGGACTACTGT)”, the “recombinant UMI read abundance (log10)” value was 0.
With “AGGACTCCATGGACCGGTTTTCCCGGTAATCCGTATTTGAC (site AGGACTCCTGT)” the “recombinant UMI read abundance (log10)” value was 0.719.
With “AGGACTCCATGGACCGGTTTTCCCGGTAATCCGTATTTGAC (site AGGACTGCTGT)” the “recombinant UMI read abundance (log10)” value was 0.
For “AGGACTCCATGGACCGGTTTTCCCGGTAATCCGTATTTGAC (site AGGACTTCTGT)”, the “recombinant UMI read abundance (log10)” value was 0.
In the case of “AGGACTGCATGGACCGGTTTTCCCGGTAATCCGTATTTGAC (site AGGACTACTGT)”, the “recombinant UMI read abundance (log10)” value is reported as 2.15.
With “AGGACTGCATGGACCGGTTTTCCCGGTAATCCGTATTTGAC (site AGGACTCCTGT)” the “recombinant UMI read abundance (log10)” value was 0.533.
In the case of “AGGACTGCATGGACCGGTTTTCCCGGTAATCCGTATTTGAC (site AGGACTGCTGT)”, the “recombinant UMI read abundance (log10)” value is reported as 2.92.
In the case of “AGGACTGCATGGACCGGTTTTCCCGGTAATCCGTATTTGAC (site AGGACTTCTGT)”, the “recombinant UMI read abundance (log10)” value is reported as 0.
In the case of “AGGAGATCATGGACCGGTTTTCCCGGTAATCCGTATTTGGG (site AGGAGATCTCC)”, the “recombinant UMI read abundance (log10)” value is reported as 0.505.
In the case of “AGGAGGCCATGGACCGGTTTTCCCGGTAATCCGTATTTGCA (site AGGAAGACTTG)”, the “recombinant UMI read abundance (log10)” value is reported as 0.
For “AGGAGGCCATGGACCGGTTTTCCCGGTAATCCGTATTTGCA (site AGGAGGCCTTG)”, the “recombinant UMI read abundance (log10)” value was 0.211.
For “AGGAGGGCATGGACCGGTTTTCCCGGTAATCCGTATTTGCC (site AGGAGGGCTGG)”, the “recombinant UMI read abundance (log10)” value was 2.16.
With “AGGAGTGCATGGACCGGTTTTCCCGGTAATCCGTATTTGAG (site AGGAGTGCTCT)” the “recombinant UMI read abundance (log10)” value was 2.37.
With “AGGATAACATGGACCGGTTTTCCCGGTAATCCGTATTTGCA (site AGGAAGACTTG)” the “recombinant UMI read abundance (log10)” value was 1.01.
With “AGGATAACATGGACCGGTTTTCCCGGTAATCCGTATTTGCA (site AGGATAACTTG)” the “recombinant UMI read abundance (log10)” value was 2.55.
For “AGGATCTCATGGACCGGTTTTCCCGGTAATCCGTATTTGAA (site AGGATCTCTTT)”, the “recombinant UMI read abundance (log10)” value was 2.92.
With “AGGATGTCATGGACCGGTTTTCCCGGTAATCCGTATTTGCA (site AGGAAGACTTG)” the “recombinant UMI read abundance (log10)” value was 0.00922.
With “AGGATGTCATGGACCGGTTTTCCCGGTAATCCGTATTTGCA (site AGGATGTCTTG)” the “recombinant UMI read abundance (log10)” value was 3.06.
For “AGGCAGGCATGGACCGGTTTTCCCGGTAATCCGTATTTGCA (site AGGAAGACTTG)”, the “recombinant UMI read abundance (log10)” value was 0.
In the case of “AGGCAGGCATGGACCGGTTTTCCCGGTAATCCGTATTTGCA (site AGGCAGGCTTG)”, the “recombinant UMI read abundance (log10)” value is reported as 2.63.
For “AGGCATACATGGACCGGTTTTCCCGGTAATCCGTATTTGCA (site AGGAAGACTTG)”, the “recombinant UMI read abundance (log10)” value was 0.
With “AGGCATACATGGACCGGTTTTCCCGGTAATCCGTATTTGCA (site AGGCATACTTG)” the “recombinant UMI read abundance (log10)” value was 2.15.
For “AGGCGACCATGGACCGGTTTTCCCGGTAATCCGTATTTGTT (site AGGCGACCTAA)”, the “recombinant UMI read abundance (log10)” value was 0.00859.
With “AGGCTCCCATGGACCGGTTTTCCCGGTAATCCGTATTTGTG (site AGGATCCCTCA)” the “recombinant UMI read abundance (log10)” value was 0.00474.
With “AGGCTCCCATGGACCGGTTTTCCCGGTAATCCGTATTTGTG (site AGGCTCCCTCA)” the “recombinant UMI read abundance (log10)” value was 0.0267.
For “AGGCTCCCATGGACCGGTTTTCCCGGTAATCCGTATTTGTG (site AGGGTCCCTCA)”, the “recombinant UMI read abundance (log10)” value was 0.0171.
For “AGGCTCCCATGGACCGGTTTTCCCGGTAATCCGTATTTGTG (site AGGTTCCCTCA)”, the “recombinant UMI read abundance (log10)” value was 0.0277.
In the case of “AGGGACCCATGGACCGGTTTTCCCGGTAATCCGTATTTGAA (site AGGGACCCTTT)”, the “recombinant UMI read abundance (log10)” value is reported as 0.531.
For “AGGGAGACATGGACCGGTTTTCCCGGTAATCCGTATTTGTA (site AGGAAGACTTG)”, the “recombinant UMI read abundance (log10)” value was 0.
For “AGGGAGACATGGACCGGTTTTCCCGGTAATCCGTATTTGTA (site AGGGAGACTTA)”, the “recombinant UMI read abundance (log10)” value was 1.57.
For “AGGGGTCCATGGACCGGTTTTCCCGGTAATCCGTATTTGTA (site AGGGGTCCTTA)”, the “recombinant UMI read abundance (log10)” value was 0.489.
With “AGGTAATCATGGACCGGTTTTCCCGGTAATCCGTATTTGAG (site AGGTAATCTCT)” the “recombinant UMI read abundance (log10)” value was 2.83.
With “AGGTACACATGGACCGGTTTTCCCGGTAATCCGTATTTGCA (site AGGAAGACTTG)” the “recombinant UMI read abundance (log10)” value was 0.
In the case of “AGGTACACATGGACCGGTTTTCCCGGTAATCCGTATTTGCA (site AGGTACACTTG)”, the “recombinant UMI read abundance (log10)” value is reported as 2.46.
With “AGGTCAACATGGACCGGTTTTCCCGGTAATCCGTATTTGAT (site AGGTCAACTAT)” the “recombinant UMI read abundance (log10)” value was 0.075.
With “AGGTCCCCATGGACCGGTTTTCCCGGTAATCCGTATTTGTG (site AGGTACCCTCA)” the “recombinant UMI read abundance (log10)” value was 0.0207.
With “AGGTCCCCATGGACCGGTTTTCCCGGTAATCCGTATTTGTG (site AGGTCCCCTCA)” the “recombinant UMI read abundance (log10)” value was 0.0562.
For “AGGTCCCCATGGACCGGTTTTCCCGGTAATCCGTATTTGTG (site AGGTGCCCTCA)”, the “recombinant UMI read abundance (log10)” value was 0.0373.
For “AGGTCCCCATGGACCGGTTTTCCCGGTAATCCGTATTTGTG (site AGGTTCCCTCA)”, the “recombinant UMI read abundance (log10)” value was 0.00496.
With “AGGTCCTCATGGACCGGTTTTCCCGGTAATCCGTATTTGGG (site AGGTCCTCTCC)” the “recombinant UMI read abundance (log10)” value was 0.0176.
For “AGGTGACCATGGACCGGTTTTCCCGGTAATCCGTATTTGCC (site AGGTGACCTGG)”, the “recombinant UMI read abundance (log10)” value was 0.
In the case of “AGGTGCACATGGACCGGTTTTCCCGGTAATCCGTATTTGAA (site AGGTGCACTTT)”, the “recombinant UMI read abundance (log10)” value is reported as 0.73.
For “AGGTGCCCATGGACCGGTTTTCCCGGTAATCCGTATTTGTG (site AGGTACCCTCA)”, the “recombinant UMI read abundance (log10)” value was 0.015.
For “AGGTGCCCATGGACCGGTTTTCCCGGTAATCCGTATTTGTG (site AGGTCCCCTCA)”, the “recombinant UMI read abundance (log10)” value was 0.0213.
For “AGGTGCCCATGGACCGGTTTTCCCGGTAATCCGTATTTGTG (site AGGTGCCCTCA)”, the “recombinant UMI read abundance (log10)” value was 0.0128.
